Data on 29 compounds can be found in US20220089592A1, “IMIDAZO[1,2-A]PYRIDINYL DERIVATIVES AS IRAK4 INHIBITORS” (priority 2019, published 2022).

Experiment [1] has as its target T1, IRAK4 (Homo sapiens, UniProt Q9NWZ3).
T1 sequence (Q9NWZ3 1-460): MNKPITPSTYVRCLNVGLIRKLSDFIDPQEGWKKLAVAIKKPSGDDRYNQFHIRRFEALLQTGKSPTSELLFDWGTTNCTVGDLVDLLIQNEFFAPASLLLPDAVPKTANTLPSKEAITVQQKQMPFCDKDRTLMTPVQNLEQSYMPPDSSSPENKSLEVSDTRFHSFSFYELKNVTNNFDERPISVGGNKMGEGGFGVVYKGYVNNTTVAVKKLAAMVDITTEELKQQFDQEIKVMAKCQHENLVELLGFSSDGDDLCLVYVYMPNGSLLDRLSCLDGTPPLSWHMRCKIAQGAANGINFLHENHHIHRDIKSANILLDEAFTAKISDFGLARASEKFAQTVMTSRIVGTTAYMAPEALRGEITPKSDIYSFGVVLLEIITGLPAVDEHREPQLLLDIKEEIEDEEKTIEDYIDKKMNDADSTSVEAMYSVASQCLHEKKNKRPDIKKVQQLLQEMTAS
The experiment in a line: 2-hour 10 μM ATP Biochemical Assay (MesoScale Detection format; IRAK4 phosphorylation of biotin labeled IRAK1 activation loop peptide). Conditions: IRAK4 MSD BIOCHEMICAL (10 μM ATP) IC50 (μM), 1 nM IRAK4, 2 hours. The essentials: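 Kinase reaction run 2 h at 10 μM ATP with biotinylated IRAK1 activation-loop peptide, quenched with EDTA. Phospho-peptide captured on streptavidin MSD plates and detected with anti-phosphothreonine rabbit antibody plus Sulfo-Tag anti-rabbit electrochemiluminescence.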

For experiment [2], the target named is T1, IRAK4. Nature of the experiment: 2-hour 1 mM ATP IRAK4 Biochemical assay (as above, but with 100 pM IRAK4 and 1 mM ATP). Conditions: IRAK4 MSD BIOCHEMICAL (1 mM ATP) IC50 (μM), 100 pM IRAK4, 2 hours. A digest of the protocol:
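Run with 100 pM IRAK4 and 1 mM ATP for 2 hours, quenched with EDTA pH 8. Phosphorylated biotinylated peptide captured on streptavidin MSD plates and detected with anti-phosphothreonine antibody plus Sulfo-Tag secondary by electrochemiluminescence.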

Broadly, the IC50 is the concentration needed to halve the response being measured. Take `CCOc1cc2nc(C3CC3)cn2cc1NC(=O)c1cccc(C(F)(F)F)n1` [Example 2, N-(2-cyclopropyl-7-ethoxyimidazo[1,2-a]pyridin-6-yl)-6-(trifluoromethyl)picolinamide]: the IC50 amounted to 0.003 µM in experiment [1] and 0.016 µM in experiment [2].
Take `CCOc1cc2nc([C@H](C)[C@H]3CCOC3)cn2cc1NC(=O)c1cccc(C(F)(F)F)n1` (single isomer, unassigned) [Example 141]: the IC50 in experiment [1] and in experiment [2] was 0.001 µM each time.
Take `CCOc1cc2nc(C3(C#N)CCOCC3)cn2cc1NC(=O)c1cccc(C(F)F)n1` [Example 160, N-(2-(4-cyanotetrahydro-2H-pyran-4-yl)-7-ethoxyimidazo[1,2-a]pyridin-6-yl)-6-(difluoromethyl)picolinamide]: the IC50 in experiment [1] was found to be 0.001 µM; in experiment [2], 0.002 µM.
`CCOc1cc2nc(C(C)(C)C#N)cn2cc1NC(=O)c1coc(C(F)F)n1` [Example 359, N-(2-(2-cyanopropan-2-yl)-7-ethoxyimidazo[1,2-a]pyridin-6-yl)-2-(difluoromethyl)oxazole-4-carboxamide]: the IC50 in experiment [1] was 0.01 µM; in experiment [2], 0.023 µM.
As to `COc1nc(NC(=O)c2cccc(C(F)(F)F)n2)cn2cc(C3CCOCC3)nc12` [Example 451, N-(8-methoxy-2-(tetrahydro-2H-pyran-4-yl)imidazo[1,2-a]pyrazin-6-yl)-6-(trifluoromethyl)picolinamide 2,2,2-trifluoroacetate], the results for the IC50 in experiment [1] and in experiment [2] were 0.029 µM and 0.066 µM, respectively.
Taken in the same sequence, the figures for `CCOc1cc2nc(C(C)(C)C#N)cn2cc1NC(=O)c1coc(C2CC2)n1` [Example 360, N-(2-(2-cyanopropan-2-yl)-7-ethoxyimidazo[1,2-a]pyridin-6-yl)-2-cyclopropyloxazole-4-carboxamide] were 0.006 µM and 0.005 µM.
On to `CCOc1cc2nc(C3CCOC3)cn2cc1NC(=O)c1cccc(C(F)(F)F)n1` (stereo not shown) [Example 59, N-(7-ethoxy-2-(tetrahydrofuran-3-yl)imidazo[1,2-a]pyridin-6-yl)-6-(trifluoromethyl)picolinamide], for which the half-maximal inhibitory concentration (IC50) in experiment [1] came to 0.002 µM; in experiment [2], 0.003 µM.
`CCOc1cc2nc(CC3CCOC3)cn2cc1NC(=O)c1ccc2c(n1)CCC2` (stereo not shown) [Example 369, N-(7-ethoxy-2-((tetrahydrofuran-3-yl)methyl)imidazo[1,2-a]pyridin-6-yl)-6,7-dihydro-5H-cyclopenta[b]pyridine-2-carboxamide]: the figures for the IC50 in experiment [1] and in experiment [2] were 0.002 µM and 0.026 µM, respectively.
Take `CCOc1cc2nc(C(=O)N(C)C)cn2cc1NC(=O)c1cccc(C(F)F)n1` [Example 108, 6-(6-(difluoromethyl)picolinamido)-7-ethoxy-N,N-dimethylimidazo[1,2-a]pyridine-2-carboxamide]: the IC50 amounted to 0.011 µM in experiment [1] and 0.025 µM in experiment [2].
As to `CCOc1cc2nc(C(O)C3CC3)cn2cc1NC(=O)c1cccc(C(F)(F)F)n1` (stereo not shown) [Example 168, N-(2-(cyclopropyl(hydroxy)methyl)-7-ethoxyimidazo[1,2-a]pyridin-6-yl)-6-(trifluoromethyl)picolinamide], the IC50 came to 0.007 µM in experiment [1] and 0.015 µM in experiment [2].
Turning to `CCOc1cc2nc(C3CCOCC3)cn2cc1NC(=O)c1csc(C)n1` [Example 223, N-(7-ethoxy-2-(tetrahydro-2H-pyran-4-yl)imidazo[1,2-a]pyridin-6-yl)-2-methylthiazole-4-carboxamide], the IC50 was 0.004 µM in experiment [1] and 0.01 µM in experiment [2].
Taken in the same sequence, the figures for `CCOc1cc2nc(CC3COCCO3)cn2cc1NC(=O)c1cccc(C(F)F)n1` (stereo not shown) [Example 83, N-(2-((1,4-dioxan-2-yl)methyl)-7-ethoxyimidazo[1,2-a]pyridin-6-yl)-6-(difluoromethyl)picolinamide] were 0.001 µM and 0.005 µM.
For `CCOc1cc2nc([C@@H](F)[C@@H]3CCOC3)cn2cc1NC(=O)c1cccc(C(F)(F)F)n1` (single isomer, unassigned) [Example 145], in that order: 0.001 µM and 0.002 µM.
For `CCOc1cc2nc(C3CCOCC3)cn2cc1NC(=O)c1cccc(C(C)(F)F)n1` [Example 227, 6-(1,1-difluoroethyl)-N-(7-ethoxy-2-(tetrahydro-2H-pyran-4-yl)imidazo[1,2-a]pyridin-6-yl)picolinamide], in that order: 0.001 µM and 0.001 µM.
In the case of `O=C(Nc1cn2cc(C3CC3)nc2cc1OCC1CC1)c1cccc(C(F)F)n1` [Example 25, N-(2-cyclopropyl-7-(cyclopropylmethoxy)imidazo[1,2-a]pyridin-6-yl)-6-(difluoromethyl)picolinamide], the IC50 in experiment [1] amounted to 0.002 µM; in experiment [2] it was 0.004 µM.
Taken in the same sequence, the figures for `CCOc1cc2nc(CC3CCOC3)cn2cc1NC(=O)c1ccn(C)n1` (stereo not shown) [Example 155, N-(7-ethoxy-2-((tetrahydrofuran-3-yl)methyl)imidazo[1,2-a]pyridin-6-yl)-1-methyl-1H-pyrazole-3-carboxamide] were 0.005 µM and 0.016 µM.
As to `CCOc1cc2nc(CCOC)cn2cc1NC(=O)c1cccc(C(F)F)n1` [Example 13, 6-(difluoromethyl)-N-(7-ethoxy-2-(2-methoxyethyl)imidazo[1,2-a]pyridin-6-yl)picolinamide], the figures for the IC50 in experiment [1] and in experiment [2] were 0.002 µM and 0.003 µM, respectively.
On to `CCOc1cc(NC(=O)c2cccc(C(F)F)n2)cn2cc(C3CCOCC3)nc12` [Example 413, 6-(difluoromethyl)-N-(8-ethoxy-2-(tetrahydro-2H-pyran-4-yl)imidazo[1,2-a]pyridin-6-yl)picolinamide], for which the IC50 stood at 0.005 µM in experiment [1] and 0.015 µM in experiment [2].
Taken in the same sequence, the figures for `CCOc1cc2nc(C3CCOCC3)cn2cc1NC(=O)c1ccn2c1CCCC2` [Example 222, N-(7-ethoxy-2-(tetrahydro-2H-pyran-4-yl)imidazo[1,2-a]pyridin-6-yl)-5,6,7,8-tetrahydroindolizine-1-carboxamide] were 0.01 µM and 0.041 µM.
For the compound `CCOc1cc2nc(C3CCSC3)cn2cc1NC(=O)c1cccc(C(F)F)n1` (stereo not shown) [Example 150, 6-(difluoromethyl)-N-(7-ethoxy-2-(tetrahydrothiophen-3-yl)imidazo[1,2-a]pyridin-6-yl)picolinamide], the values for the IC50 in experiment [1] and in experiment [2] were 0.001 µM and 0.002 µM, respectively.
Regarding `CCOc1cc2nc([C@H](C)[C@@H]3CCOC3)cn2cc1NC(=O)c1cccc(C(F)(F)F)n1` (single isomer, unassigned) [Example 138], the IC50 in experiment [1] and in experiment [2] was 0.001 µM in each case.
Consider `CCOc1cc2nc([C@H](O)C3CC3)cn2cc1NC(=O)c1cccc(C(F)(F)F)n1` (single isomer, unassigned) [Example 170], for which the half-maximal inhibitory concentration (IC50) came to 0.004 µM in experiment [1] and 0.012 µM in experiment [2].
On to `CCOc1cc2nc(C3CCOCC3)cn2cc1NC(=O)c1cccc(C(F)F)n1` [Example 116, 6-(difluoromethyl)-N-(7-ethoxy-2-(tetrahydro-2H-pyran-4-yl)imidazo[1,2-a]pyridin-6-yl)picolinamide], for which the IC50 in experiment [1] and in experiment [2] was 0.001 µM throughout.
Regarding `CCOc1cc2nc(C3CCOCC3)cn2cc1NC(=O)c1cccc(C(F)F)c1` [Example 228, 3-(difluoromethyl)-N-(7-ethoxy-2-(tetrahydro-2H-pyran-4-yl)imidazo[1,2-a]pyridin-6-yl)benzamide], the IC50 was found to be 0.013 µM in experiment [1] and 0.056 µM in experiment [2].
Regarding `CCOc1cc2nc([C@H]3C[C@H](OC(C)C)C3)cn2cc1NC(=O)c1cccc(C(F)F)n1` [Example 135, 6-(difluoromethyl)-N-(7-ethoxy-2-((1r,3r)-3-isopropoxycyclobutyl)imidazo[1,2-a]pyridin-6-yl)picolinamide], the 50% inhibitory concentration (IC50) in experiment [1] stood at 0.002 µM; in experiment [2], 0.006 µM.
Consider `COc1cc(NC(=O)c2cccc(C(F)F)n2)cn2cc(C3CCOC(C)(C)C3)nc12` (stereo not shown) [Example 510, 6-(difluoromethyl)-N-(2-(2,2-dimethyltetrahydro-2H-pyran-4-yl)-8-methoxyimidazo[1,2-a]pyridin-6-yl)picolinamide 2,2,2-trifluoroacetate], for which the IC50 in experiment [1] was found to be 0.001 µM; in experiment [2], 0.002 µM.
For `CCOc1cc2nc([C@H](F)[C@H]3CCOC3)cn2cc1NC(=O)c1cccc(C(F)(F)F)n1` (single isomer, unassigned) [Example 146], the IC50 in experiment [1] and in experiment [2] was 0.001 µM throughout.
As for `COc1cc(NC(=O)c2cccc(C(F)F)n2)cn2cc(C3CC4(CCOC4)C3)nc12` (stereo not shown) [Example 507, 6-(difluoromethyl)-N-(8-methoxy-2-(6-oxaspiro[3.4]octan-2-yl)imidazo[1,2-a]pyridin-6-yl)picolinamide], the IC50 was determined as 0.002 µM in experiment [1] and 0.004 µM in experiment [2].
In the case of `CCOc1cc2nc(COc3ccccn3)cn2cc1NC(=O)c1cccc(C(F)F)n1` [Example 86, 6-(difluoromethyl)-N-(7-ethoxy-2-((pyridin-2-yloxy)methyl)imidazo[1,2-a]pyridin-6-yl)picolinamide], the IC50 is 0.006 µM in experiment [1] and 0.008 µM in experiment [2].
